Test results: PMC9049607 (Microbial Biotechnology, 2021)
Where two headings read alike, the source gives them in different places.

Legend:
[1] = tested on: OYE2p; conditions: read-out: Enzyme / Y84V, 100 mM PBS pH 8.0, 30°C
[2] = molecular target: AdhE (Escherichia coli, UniProt P0A9Q7); assay: NADH consumption at […] nm, specific activity; format: biochemical; conditions: 5 mM substrate, 0.2 mM NADH, 100 mM PBS pH 8.0, 30°C
[3] = molecular target: T1, YahK (Escherichia coli, UniProt P75691); assay: NADH consumption at […] nm, specific activity; format: biochemical; conditions: 5 mM substrate, 0.2 mM NADH, 100 mM PBS pH 8.0, 30°C
T1 sequence (P75691 1-349): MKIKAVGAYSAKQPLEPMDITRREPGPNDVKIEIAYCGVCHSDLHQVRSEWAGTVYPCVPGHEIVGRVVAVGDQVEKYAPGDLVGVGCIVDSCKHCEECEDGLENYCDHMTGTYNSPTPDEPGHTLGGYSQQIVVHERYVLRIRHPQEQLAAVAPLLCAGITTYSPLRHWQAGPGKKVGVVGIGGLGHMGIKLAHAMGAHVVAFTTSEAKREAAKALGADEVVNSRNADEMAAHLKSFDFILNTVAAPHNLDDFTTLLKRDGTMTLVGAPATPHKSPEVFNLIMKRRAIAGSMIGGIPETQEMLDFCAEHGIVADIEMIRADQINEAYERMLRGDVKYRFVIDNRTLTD

Sequence of AdhE (P0A9Q7 2-891): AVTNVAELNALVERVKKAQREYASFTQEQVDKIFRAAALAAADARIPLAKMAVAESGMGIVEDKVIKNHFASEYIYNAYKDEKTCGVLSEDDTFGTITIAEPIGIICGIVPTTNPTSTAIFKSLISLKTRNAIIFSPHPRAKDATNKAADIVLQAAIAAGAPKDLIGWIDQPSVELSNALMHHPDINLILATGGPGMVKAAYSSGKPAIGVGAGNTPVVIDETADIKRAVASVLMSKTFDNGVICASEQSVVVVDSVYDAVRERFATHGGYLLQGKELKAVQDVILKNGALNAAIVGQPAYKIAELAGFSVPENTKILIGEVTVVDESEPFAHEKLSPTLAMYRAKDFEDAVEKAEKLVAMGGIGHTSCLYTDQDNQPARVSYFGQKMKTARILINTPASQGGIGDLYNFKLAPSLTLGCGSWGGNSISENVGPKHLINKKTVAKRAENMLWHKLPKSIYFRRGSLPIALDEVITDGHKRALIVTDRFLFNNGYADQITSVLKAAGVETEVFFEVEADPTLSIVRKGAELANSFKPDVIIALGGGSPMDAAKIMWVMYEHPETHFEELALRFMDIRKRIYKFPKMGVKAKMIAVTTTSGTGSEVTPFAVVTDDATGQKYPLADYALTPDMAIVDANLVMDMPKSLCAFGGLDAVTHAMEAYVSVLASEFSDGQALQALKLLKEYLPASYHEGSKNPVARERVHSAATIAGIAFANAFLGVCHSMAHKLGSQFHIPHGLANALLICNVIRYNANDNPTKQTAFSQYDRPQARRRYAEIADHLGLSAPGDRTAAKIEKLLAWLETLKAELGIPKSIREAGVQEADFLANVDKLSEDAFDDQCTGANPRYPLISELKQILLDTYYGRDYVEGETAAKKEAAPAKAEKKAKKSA

Compound | Km ([1]; 0.2 mM NADH) [µM] | NADH consumption at 340 nm, specific activity [2] | NADH consumption at 340 nm, specific activity [3] | Km ([1]; 5 mM (E/Z)-citral) [µM]
CC(C)=CCC/C(C)=C/C=O [(E)-citral] | 107 ± 26 | these enzymes have catalytic activity for the tested substrates | – | –
CC(C)=CCCC(C)CC=O (stereo not drawn) [citronellal] | – | approximately twice higher than that of AdhE and YahK | approximately twice higher than that of AdhE and YahK | –
CC(C)=CCC/C(C)=C\C=O [(Z)-citral] | 326 ± 84 | – | – | –
NC(=O)C1=CN([C@@H]2O[C@H](COP(=O)(O)OP(=O)(O)OC[C@H]3O[C@@H](n4cnc5c(N)ncnc54)[C@H](O)[C@@H]3O)[C@@H](O)[C@H]2O)C=CC1 [NADH] | – | – | – | 27 ± 8
